# Patent US9994584B2, “Process of synthesizing 3-(4-methylpiperazine-1-carbonyl)-7-oxabicyclo[2.2.1] heptane-2-carboxylic acid” (LIXTE BIOTECHNOLOGY, INC., priority 2014, dated 2018)
# Assays:
# [1] = Solubility in water (water/2-propanol recrystallization); type: physicochemical; conditions: crude solids, ambient temperature
# Experimental: The crude solids (0.5 g) were dissolved in water (1 mL) and 2-propanol (5 mL) was charged. The resulting slurry was stirred at room temperature for 1 hour, and then isolated by filtration. The solids were washed with 2-propanol (to cover the solids) and air dried to afford 0.1 g (20% recovery yield).
# PP2A = conditions: used alone (Lu et al. 2009a); cited from earlier work
# [2] = Solubility in toluene (hot toluene trituration); type: physicochemical; conditions: crude solids digested in hot toluene for 1 hour
# Experimental: The crude solids (1 g) were digested in hot toluene (15 mL) for 1 hour. The slurry was cooled to room temperature and the solids were isolated by filtration. The solids were dried at 80° C., under vacuum, to afford 0.86 g (86%). […] Based on this observation, in the following experiment toluene was further tried as an anti-solvent.
# [3] = in vivo; with temozolomide, doxorubicin, docetaxel; cited from earlier work
smiles,measurement,setting,value
"CN1CCN(C(=O)C2C(C(=O)O)[C@H]3CC[C@@H]2O3)CC1 (stereo in doubt) [LB100, 3-(4-methylpiperazine-1-carbonyl)-7-oxabicyclo[2.2.1] heptane-2-carboxylic acid]",solubility in water,[1],high solubility in water
same,anti-cancer activity,PP2A,has anti-cancer activity when used alone
same,solubility in toluene,[2],low solubility of the material in toluene
same,potentiation of anti-tumor activity of standard cytotoxic anti-cancer drugs,[3],significantly potentiates in vivo
same,toxicity in combination with cytotoxic anti-cancer drugs,[3],without observable increase in toxicity
